Here are results for 20 compounds from PubChem BioAssay (NCI).

Some test systems named below: P388/ADR leukemia; XF 498 CNS; DMS 114 small cell lung; SN12K1 renal; DU-145 prostate; RXF-631 renal.
What all share (experiment): NCI tumour cell line growth inhibition, 48 h

Each structure is given as a SMILES string. “And” between values parts separate entries of the source, which are not always exact repeats. Equal entries are not always repeated.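 Cultured in 96-well plates, cells were exposed to test compound for 48 hours across five concentrations. TGI marks complete inhibition of growth.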 Where only a bound is given, the exact number is not on record here.

For `OCC#CCNCl`, the TGI is more than 100 µM with P388/ADR leukemia, more than 95.2 µM in the test on XF 498 CNS, more than 100 µM with DMS 114 small cell lung and more than 100 µM in the test with SN12K1 renal.

For `O=[N+]([O-])C(=C/c1ccccc1)/C(=C\c1ccccc1)[N+](=O)[O-]`, in the test on DU-145 prostate, the TGI worked out at 29.7 µM.

`CCNC(=O)C(C)C1CCC2(C)C=CC(=O)C(C)=C2C1O` (stereo not drawn): the TGI in the test with P388/ADR leukemia, in the test on XF 498 CNS, in the test with DMS 114 small cell lung and in the test on SN12K1 renal was more than 100 µM each time.

With `CN(C)CCNc1ccc2ncn3c4ccccc4c(=O)c1c23`, the TGI with DMS 114 small cell lung came out at 13.7 µM.

As for `O=C1OC(c2ccccc2)=NC1c1ccccc1` (stereo not drawn), the TGI with DU-145 prostate is more than 100 µM.

For the compound `COc1ccccc1/C=C(/C)[N+](=O)[O-]`, the TGI in the test on DU-145 prostate was 3.12 µM and 2.36 µM.

Regarding `FC(F)(F)c1ccc2c(c1)N(CCCNCCN1CCOCC1)c1ccccc1S2`, in the test with XF 498 CNS, the TGI was 15.2 µM.

Regarding `CC(C)=CCCC(C)(OC1OC(CO)C(O)C(O)C1O)C1CCC2(C)C1C(O)CC1C3(C)CCC(O)C(C)(C)C3C(OC3OC(CO)C(O)C(O)C3OC3OC(C)C(O)C(O)C3O)CC12C` (stereo not drawn) (tested in a mixture with another compound), the TGI with DU-145 prostate is more than 75 µM.

In the test on DMS 114 small cell lung, `O=C(NN1C(=O)C(Cl)C1c1ccccc1O)c1ccccc1O` (stereo not drawn) came in with a TGI of 55.2 µM.

Take `CCOC(=O)Cc1cc(OC)c(OC)cc1/C(Cl)=C(\CO)c1ccc(OC)c(OC)c1`: the TGI in the test with XF 498 CNS was 49.2 µM; with DMS 114 small cell lung, more than 100 µM; in the test with RXF-631 renal, more than 100 µM.

In turn, `C[N+](C)(CCCCCC[N+](C)(C)CCCN1C(=O)c2cccc3cccc(c23)C1=O)CCCN1C(=O)c2cccc3cccc(c23)C1=O` gave a TGI in the test on DU-145 prostate of more than 100 µM.

As for `C/C(=C/C(=O)Nc1ccccc1)Nc1onc(C)c1C`, the TGI in the test with XF 498 CNS, in the test with DMS 114 small cell lung and in the test with SN12K1 renal was more than 100 µM each time.

In the case of `Cc1c(O)c(=O)ccn1CCN`, the TGI in the test with DMS 114 small cell lung and in the test with RXF-631 renal was more than 100 µM in each case.

Turning to `O=NN1C(c2ccccc2)CNC(=O)CC1c1ccccc1` (stereo not drawn), the TGI in the test on P388/ADR leukemia was 63.5 µM; with DMS 114 small cell lung, 59.3 µM; in the test on SN12K1 renal it was more than 100 µM.

In the case of `N#C/C(=C\c1ccncc1)c1csc2ccccc12`, the TGI was 25.2 µM with P388/ADR leukemia, 46.3 µM in the test with XF 498 CNS and more than 77.7 µM with SN12K1 renal.

In the case of `O=S(O)CCCCCSSc1ccccc1`, the TGI in the test on XF 498 CNS was 72.3 µM; in the test on DMS 114 small cell lung it was 66.6 µM.

In turn, `Nc1nc(Nc2ccc(Cl)c(Cl)c2)nc2nc[nH]c12` registered a TGI in the test on DU-145 prostate of 21.6 µM.

In the test with XF 498 CNS, `O=C1C(Cl)N(c2c(Cl)cccc2Cl)C1c1c[nH]c2ccccc12` (stereo not drawn) showed a TGI of more than 100 µM.

In the case of `S=c1sc2c(s1)SC(c1ccccc1)CS2` (stereo not drawn), the TGI in the test with P388/ADR leukemia, in the test with DMS 114 small cell lung and in the test with SN12K1 renal was more than 100 µM throughout.

As to `Cc1ccc(/C=C2\Sc3scc(-c4ccccc4)[n+]3C2=O)cc1`, the TGI with DU-145 prostate was more than 65.9 µM.
